These are literature values, as cited in patent US7825087B2 (Elan Pharma International Limited, priority 2005, dated 2010).

Series [1] deals with bone marrow. The conditions noted are these: animal models or man.
The conditions of series [2]: distribution in blood, concentration dependent.

Consider “[R—[R*,R*-(E)]]-cyclic (L-alanyl-D-alanyl-N-methyl-L-leucyl-N-methyl-L-leucyl-N-methyl-L-valyl-3-hydroxy-N,4-dimethyl-L-2-amino-6-octenoyl-L-(alpha)-amino-butyryl-N-methylglycyl-N-methyl-L-leucyl-L-valyl-N-methyl-L-leucyl) [cyclosporine]”, for which, in series [1], the bone marrow suppression entry is “does not cause bone marrow suppression”. Also, in series [2], the fraction in erythrocytes is 41%-58%, the fraction in granulocytes is 5%-12% and the fraction in lymphocytes is given as 4%-9%.
